Several values for one entry are separate records, joined by “and”; a condition that tells them apart may be missing. Equal values may be shown once.
## O=C1NC(=O)C(c2ccccc2)(c2ccccc2)N1
In NMP, 293.15 K
  solubility (mole fraction): 0.119
In NMP, 313.15 K
  solubility (mole fraction): 0.116
In transcutol, 298.2 K
  solubility (mole fraction): 0.00133
In transcutol, 303.2 K
  solubility (mole fraction): 0.00144
In transcutol, 308.2 K
  solubility (mole fraction): 0.00151
In transcutol, 313.2 K
  solubility (mole fraction): 0.00166
In water, 293.15 K
  solubility (mole fraction): 9.7e-07
In water, 298.2 K
  solubility (mole fraction): 1.51e-06
In water, 303.2 K
  solubility (mole fraction): 1.72e-06
In water, 308.2 K
  solubility (mole fraction): 1.88e-06
In water, 313.15 K
  solubility (mole fraction): 1.91e-06
In water, 313.2 K
  solubility (mole fraction): 2.08e-06

## N[C@@H](C(=O)O)c1ccc(O)cc1
In water, 293.25 K
  solubility (mole fraction): 0.00196
In water, 298.13 K
  solubility (mole fraction): 0.0021
In water, 303.15 K
  solubility (mole fraction): 0.00224
In water, 308.18 K
  solubility (mole fraction): 0.00241
In water, 313.15 K
  solubility (mole fraction): 0.00255
In water, 318.17 K
  solubility (mole fraction): 0.00272

## CC(C)(C)C(=O)OCOP(=O)(COCCn1cnc2c(N)ncnc21)OCOC(=O)C(C)(C)C
In acetone, 298.15 K
  solubility (mole fraction): 0.0662
In dichloromethane, 298.15 K
  solubility (mole fraction): 0.175
In diisopropyl ether, 298.15 K
  solubility (mole fraction): 3.71e-05
In ethanol, 298.15 K
  solubility (mole fraction): 0.0341
In ethyl acetate, 298.15 K
  solubility (mole fraction): 0.0263
In isopropanol, 298.15 K
  solubility (mole fraction): 0.0252

## O=c1[nH]cc(Br)c(=O)[nH]1
In water, 298.15 K
  solubility (mole fraction): 0.000272

## C[C@@H](O)[C@H]1C(=O)N2C(C(=O)[O-])=C(SC3Cn4cnc[n+]4C3)[C@H](C)[C@H]12 (stereo partly drawn)
In water, 283.15 K
  solubility (mole fraction): 0.000323
In water, 288.15 K
  solubility (mole fraction): 0.000367
In water, 293.15 K
  solubility (mole fraction): 0.000413
In water, 298.15 K
  solubility (mole fraction): 0.000463
In water, 303.15 K
  solubility (mole fraction): 0.000521
In water, 308.15 K
  solubility (mole fraction): 0.000584
In water, 313.15 K
  solubility (mole fraction): 0.000649
In water, 318.15 K
  solubility (mole fraction): 0.000721
In water, 323.15 K
  solubility (mole fraction): 0.000807

## CCC1=C(C)CN(C(=O)NCCc2ccc(S(=O)(=O)NC(=O)NC3CCC(C)CC3)cc2)C1=O (stereo not drawn)
In DMAc, 278.15 K
  solubility (mole fraction): 0.0106
In DMAc, 283.15 K
  solubility (mole fraction): 0.0124
In DMAc, 288.15 K
  solubility (mole fraction): 0.0147
In DMAc, 293.15 K
  solubility (mole fraction): 0.017
In DMAc, 298.15 K
  solubility (mole fraction): 0.0199
In DMAc, 303.15 K
  solubility (mole fraction): 0.0227
In DMAc, 308.15 K
  solubility (mole fraction): 0.0259
In DMAc, 313.15 K
  solubility (mole fraction): 0.0298
In DMAc, 318.15 K
  solubility (mole fraction): 0.0343

## Cc1ccccc1
In water, 295.7 K
  solubility (mole fraction): 0.000112

## Cc1ccccc1C(=O)O
In cyclohexane, 295.45 K
  solubility (mole fraction): 0.0146
In cyclohexane, 304.95 K
  solubility (mole fraction): 0.0279
In cyclohexane, 316.65 K
  solubility (mole fraction): 0.0515
In cyclohexane, 319.4 K
  solubility (mole fraction): 0.0615
In cyclohexane, 325.2 K
  solubility (mole fraction): 0.0885
In cyclohexane, 329.35 K
  solubility (mole fraction): 0.106
In cyclohexane, 333.45 K
  solubility (mole fraction): 0.138
In cyclohexane, 338.15 K
  solubility (mole fraction): 0.185

## C1CN2CN3CCN(CN1C3)C2
In water, 275 K
  solubility (mole fraction): 0.0905
In water, 277 K
  solubility (mole fraction): 0.0925
In water, 279 K
  solubility (mole fraction): 0.0946
In water, 283 K
  solubility (mole fraction): 0.0999
In water, 288 K
  solubility (mole fraction): 0.105
In water, 293 K
  solubility (mole fraction): 0.109
In water, 298 K
  solubility (mole fraction): 0.113
In water, 303 K
  solubility (mole fraction): 0.119

## Cc1cnc(NC(=O)C2=C(O)c3ccccc3S(=O)(=O)N2C)s1
In methanol, 293.15 K
  solubility (mole fraction): 4.02e-05
In methanol, 298.15 K
  solubility (mole fraction): 4.87e-05 and 3.93e-05
In methanol, 303.15 K
  solubility (mole fraction): 5.88e-05
In methanol, 308.15 K
  solubility (mole fraction): 7.04e-05
In methanol, 313.15 K
  solubility (mole fraction): 8.46e-05
In water, 298.15 K
  solubility (mole fraction): 4.23e-06

## CCCN1CCCC[C@H]1C(=O)Nc1c(C)cccc1C
In acetone, 278.15 K
  solubility (mole fraction): 0.00654
In acetone, 283.15 K
  solubility (mole fraction): 0.00793
In acetone, 288.15 K
  solubility (mole fraction): 0.0098
In acetone, 293.15 K
  solubility (mole fraction): 0.012
In acetone, 298.15 K
  solubility (mole fraction): 0.0148
In acetone, 303.15 K
  solubility (mole fraction): 0.0184
In acetone, 308.15 K
  solubility (mole fraction): 0.023
In acetone, 313.15 K
  solubility (mole fraction): 0.0266
In acetone, 318.15 K
  solubility (mole fraction): 0.0344

## NCCC(=O)N[C@@H](Cc1cnc[nH]1)C(=O)O
In water, 288.15 K
  solubility (mole fraction): 0.0217
In water, 293.15 K
  solubility (mole fraction): 0.0224
In water, 298.15 K
  solubility (mole fraction): 0.0236
In water, 303.15 K
  solubility (mole fraction): 0.0249
In water, 308.15 K
  solubility (mole fraction): 0.0265
In water, 313.15 K
  solubility (mole fraction): 0.0287
In water, 318.15 K
  solubility (mole fraction): 0.0301
In water, 323.15 K
  solubility (mole fraction): 0.0324

## CC(=O)Nc1ccc(O)cc1
In water, 293.15 K
  solubility (mole fraction): 0.00155 and 0.00159 and 0.00152
In water, 310.15 K
  solubility (mole fraction): 0.00272
In water, 318.15 K
  solubility (mole fraction): 0.0036

## C1=Cc2nc1c(-c1ccccc1)c1ccc([nH]1)c(-c1ccccc1)c1nc(c(-c3ccccc3)c3ccc([nH]3)c2-c2ccccc2)C=C1
In ethanol, 303.2 K
  solubility (mole fraction): 1.76e-06
In ethanol, 313.2 K
  solubility (mole fraction): 2.31e-06
In ethanol, 323.2 K
  solubility (mole fraction): 3.06e-06
In ethanol, 333.2 K
  solubility (mole fraction): 4.01e-06

## O=c1[nH]cc(F)c(=O)[nH]1
In THF, 283.15 K
  solubility (mole fraction): 0.000217
In THF, 288.15 K
  solubility (mole fraction): 0.000286
In THF, 293.15 K
  solubility (mole fraction): 0.000359
In THF, 298.15 K
  solubility (mole fraction): 0.000471
In THF, 303.15 K
  solubility (mole fraction): 0.000618
In THF, 308.15 K
  solubility (mole fraction): 0.000763
In THF, 313.15 K
  solubility (mole fraction): 0.000961
In THF, 318.15 K
  solubility (mole fraction): 0.0012
In THF, 323.15 K
  solubility (mole fraction): 0.00151
In water, 298.15 K
  solubility (mole fraction): 0.00248

## CCc1ccc(CCOc2ccc(CC3SC(=O)NC3=O)cc2)nc1.Cl (stereo not drawn)
In methanol, 283.15 K
  solubility (mole fraction): 0.00517
In methanol, 293.15 K
  solubility (mole fraction): 0.00754
In methanol, 303.15 K
  solubility (mole fraction): 0.0102
In methanol, 313.15 K
  solubility (mole fraction): 0.0149
In methanol, 323.15 K
  solubility (mole fraction): 0.0223

## N[C@@H](Cc1cnc[nH]1)C(=O)O
In water, 283.15 K
  solubility (mole fraction): 0.0035
In water, 288.15 K
  solubility (mole fraction): 0.00384
In water, 293.15 K
  solubility (mole fraction): 0.00417
In water, 298.15 K
  solubility (mole fraction): 0.00459
In water, 303.15 K
  solubility (mole fraction): 0.0051
In water, 308.15 K
  solubility (mole fraction): 0.00562
In water, 313.15 K
  solubility (mole fraction): 0.00613
In water, 318.15 K
  solubility (mole fraction): 0.00667

## O=[N+]([O-])c1ccc(N/N=C/c2ccco2)cc1
In water, 298.15 K
  solubility (mole fraction): 1.72e-07

## Cc1c(O)c(=O)ccn1C
In NMP, 298.2 K
  solubility (mole fraction): 0.002
In PEG-400, 298.2 K
  solubility (mole fraction): 0.00864
In ethanol, 298.2 K
  solubility (mole fraction): 0.0014
In ethylene glycol, 298.2 K
  solubility (mole fraction): 0.00737
In propylene glycol, 298.2 K
  solubility (mole fraction): 0.00563

## COc1ccc2c(c1)c(CC(=O)O)c(C)n2C(=O)c1ccc(Cl)cc1
In acetone, 293 K
  solubility (mole fraction): 0.0183
In acetone, 298 K
  solubility (mole fraction): 0.0208
In acetone, 303 K
  solubility (mole fraction): 0.0236
In acetone, 308 K
  solubility (mole fraction): 0.0273
In acetone, 313 K
  solubility (mole fraction): 0.0316
In acetone, 318 K
  solubility (mole fraction): 0.0365

## CC1(C)S[C@@H]2[C@H](NC(=O)COc3ccccc3)C(=O)N2[C@H]1C(=O)[O-].[K+]
In ethanol, 278.15 K
  solubility (mole fraction): 0.00047
In ethanol, 283.15 K
  solubility (mole fraction): 0.000485
In ethanol, 293.15 K
  solubility (mole fraction): 0.000866
In ethanol, 298.15 K
  solubility (mole fraction): 0.00117
In ethanol, 303.15 K
  solubility (mole fraction): 0.00207
In ethanol, 308.15 K
  solubility (mole fraction): 0.0029
In ethanol, 313.15 K
  solubility (mole fraction): 0.00428

## O=C(O)[C@@H]1C[C@@H](O)CN1
In water, 293.15 K
  solubility (mole fraction): 0.0483
In water, 298.15 K
  solubility (mole fraction): 0.0499
In water, 303.15 K
  solubility (mole fraction): 0.0525
In water, 308.15 K
  solubility (mole fraction): 0.0551
In water, 313.15 K
  solubility (mole fraction): 0.0585
In water, 318.15 K
  solubility (mole fraction): 0.0614

## O=c1c(-c2ccc(O)cc2)coc2c([C@@H]3O[C@H](CO)[C@@H](O)[C@H](O)[C@H]3O)c(O)ccc12
In methanol, 293.15 K
  solubility (mole fraction): 0.00714
In methanol, 303.15 K
  solubility (mole fraction): 0.00787
In methanol, 313.15 K
  solubility (mole fraction): 0.00858
In methanol, 323.15 K
  solubility (mole fraction): 0.00932
In methanol, 333.15 K
  solubility (mole fraction): 0.0102

— BigSolDB 2.1
